In the supplement of paper PMC11208160:

Assay: recombinant UMI read abundance after kanamycin selection (control-corrected) (log10(CPM+1)); higher = more efficient recombination; extreme values may be limits of the assay; sequences stand for … in AGTGCAGAGAAAATCGGCCAGTTTTCTCTGCCTGCAGTCCGCATGCCGTGGGACCCCTTGGGTTCTAACCTGTTGCCTAGATTTATGCAGCGGACTGCCTTTCTCCCAAAGTGATAAACCGG…AGGTTGGTTTCACT; site = the 11-nt donor
Outline: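 Under IPTG (0.07 mM) plus kanamycin, or without selection, Escherichia coli carrying a UMI-tagged donor and donor-binding-loop pair library and a target plasmid for the IS621 bridge recombinase were plated in two replicates. Recombinant UMIs were PCR-amplified across the donor–target junction and sequenced. Counts were converted to CPM, averaged over replicates, scaled by control-derived factors and reported as log10(CPM+1).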
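Also: IS621 bridge recombinase in Escherichia coli cells against a fixed T5 target plasmid.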

In order of falling “recombinant UMI read abundance (log10)” value:
1. GTAATCTCATGGACCGGTTTTCCCGGTAATCCGTATTTGTA (site GTAATCTCTTA)  2.83
2. GTACGTACATGGACCGGTTTTCCCGGTAATCCGTATTTGAC (site GTACGTACTGT)  2.51
3. GTACATTCATGGACCGGTTTTCCCGGTAATCCGTATTTGTG (site GTACATTCTCA)  2.5
4. GTAGACGCATGGACCGGTTTTCCCGGTAATCCGTATTTGCG (site GTAGACGCTCG)  2.33
5. GGTGGTGCATGGACCGGTTTTCCCGGTAATCCGTATTTGAC (site GGTGGTGCTGT)  2.18
6. GGTAAGTCATGGACCGGTTTTCCCGGTAATCCGTATTTGTT (site GGTAAGTCTAA)  1.98
7. GGTCAAGCATGGACCGGTTTTCCCGGTAATCCGTATTTGGC (site GGTCAAGCTGC)  1.47
8. GTACATGCATGGACCGGTTTTCCCGGTAATCCGTATTTGGT (site GTACATGCTAC)  1.43
9. GGGTTGACATGGACCGGTTTTCCCGGTAATCCGTATTTGAA (site GGGTTGACTTT)  0.979
10. GGTACATCATGGACCGGTTTTCCCGGTAATCCGTATTTGAG (site GGTACATCTCT)  0.66
11. GTAATAACATGGACCGGTTTTCCCGGTAATCCGTATTTGGG (site GTAATAACTCC)  0.656
12. GGTGTGGCATGGACCGGTTTTCCCGGTAATCCGTATTTGGT (site GGTGTGGCTAC)  0.636
13. GGTCTAACATGGACCGGTTTTCCCGGTAATCCGTATTTGTA (site GGTCTAACTTA)  0.607
14. GGTCGATCATGGACCGGTTTTCCCGGTAATCCGTATTTGCG (site GGTCGATCTCG)  0.598
15. GGTAATCCATGGACCGGTTTTCCCGGTAATCCGTATTTGAA (site GGCAATCCTTT)  0.58
16. GGTTTCACATGGACCGGTTTTCCCGGTAATCCGTATTTGTA (site GGTTTCACTTA)  0.519
17. GGTGTTACATGGACCGGTTTTCCCGGTAATCCGTATTTGTT (site GGTGTTACTAA)  0.51
18. GGTCCATCATGGACCGGTTTTCCCGGTAATCCGTATTTGTA (site GGTCCATCTTA)  0.459
19. GGTACGACATGGACCGGTTTTCCCGGTAATCCGTATTTGTT (site GGTACGACTAA)  0.444
20. GGTTCGTCATGGACCGGTTTTCCCGGTAATCCGTATTTGTT (site GGTTCGTCTAA)  0.351
21. GTAAATCCATGGACCGGTTTTCCCGGTAATCCGTATTTGGG (site GTAAATCCTCC)  0.325
22. GGTAATCCATGGACCGGTTTTCCCGGTAATCCGTATTTGAA (site GGTAATCCTTT)  0.27
23. GTACATGCATGGACCGGTTTTCCCGGTAATCCGTATTTGGT (site GTTCATGCTAC)  0.184
24. GGTGTGGCATGGACCGGTTTTCCCGGTAATCCGTATTTGGT (site GGGGTGGCTAC)  0.145
25. GGTGTGGCATGGACCGGTTTTCCCGGTAATCCGTATTTGGT (site GGAGTGGCTAC)  0.128
26. GTACGTACATGGACCGGTTTTCCCGGTAATCCGTATTTGAC (site GTAGGTACTGT)  0.0679
27. GGTGCTGCATGGACCGGTTTTCCCGGTAATCCGTATTTGTG (site GGTGCTGCTCA)  0.0597
28. GTACATGCATGGACCGGTTTTCCCGGTAATCCGTATTTGGT (site GTCCATGCTAC)  0.0463
29. GGTCCCACATGGACCGGTTTTCCCGGTAATCCGTATTTGTA (site GGTCCTACTTA)  0.0287
30. GGTCGTCCATGGACCGGTTTTCCCGGTAATCCGTATTTGTA (site GGTCGTCCTTA)  0.0245
31. GTACATGCATGGACCGGTTTTCCCGGTAATCCGTATTTGGT (site GTGCATGCTAC)  0.0209
32. GGTCCCACATGGACCGGTTTTCCCGGTAATCCGTATTTGTA (site GGTCCCACTTA)  0.0202
33. GGTACGACATGGACCGGTTTTCCCGGTAATCCGTATTTGTT (site GGTACGGCTAA)  0.0185
34. GGTACGACATGGACCGGTTTTCCCGGTAATCCGTATTTGTT (site GGTACGTCTAA)  0.0179
35. GGTACGACATGGACCGGTTTTCCCGGTAATCCGTATTTGTT (site GGTACGCCTAA)  0.0177
36. GGTGTGGCATGGACCGGTTTTCCCGGTAATCCGTATTTGGT (site GGCGTGGCTAC)  0.0168
37. GTACTCGCATGGACCGGTTTTCCCGGTAATCCGTATTTGCG (site GTAATCGCTCG)  0.0162
38. GGTCCATCATGGACCGGTTTTCCCGGTAATCCGTATTTGTA (site GGTCCAACTTA)  0.016
39. GGTACGTCATGGACCGGTTTTCCCGGTAATCCGTATTTGTC (site GGTACGTCTAA)  0.0158
40. GGTTCGTCATGGACCGGTTTTCCCGGTAATCCGTATTTGTT (site GGTACGTCTAA)  0.0147
41. GTACTCGCATGGACCGGTTTTCCCGGTAATCCGTATTTGCG (site GTACTCGCTCG)  0.0142
42. GGTCTAACATGGACCGGTTTTCCCGGTAATCCGTATTTGTA (site GGTCGAACTTA)  0.0128
43. GGTACGTCATGGACCGGTTTTCCCGGTAATCCGTATTTGTC (site GGTACGTCTTA)  0.0125
44. GGTTCGTCATGGACCGGTTTTCCCGGTAATCCGTATTTGTT (site GGTCCGTCTAA)  0.0123
45. GGTACGTCATGGACCGGTTTTCCCGGTAATCCGTATTTGTC (site GGTACGTCTCA)  0.0113
46. GGTCCATCATGGACCGGTTTTCCCGGTAATCCGTATTTGTA (site GGTCCACCTTA)  0.0104
47. GGTACGTCATGGACCGGTTTTCCCGGTAATCCGTATTTGTC (site GGTACGTCTGA)  0.0103
48. GGTAAGTCATGGACCGGTTTTCCCGGTAATCCGTATTTGTT (site GGTATGTCTAA)  0.00986
49. GTACTCGCATGGACCGGTTTTCCCGGTAATCCGTATTTGCG (site GTATTCGCTCG)  0.00972
50. GGTAAGTCATGGACCGGTTTTCCCGGTAATCCGTATTTGTT (site GGTAGGTCTAA)  0.00944
51. GTACGTACATGGACCGGTTTTCCCGGTAATCCGTATTTGAC (site GTATGTACTGT)  0.00913
52. GTACTCGCATGGACCGGTTTTCCCGGTAATCCGTATTTGCG (site GTAGTCGCTCG)  0.00832
53. GTACGTACATGGACCGGTTTTCCCGGTAATCCGTATTTGAC (site GTAAGTACTGT)  0.00784
54. GGTAATCCATGGACCGGTTTTCCCGGTAATCCGTATTTGAA (site GGGAATCCTTT)  0.00622
55. GGTCCCACATGGACCGGTTTTCCCGGTAATCCGTATTTGTA (site GGTCCGACTTA)  0.0061
56. GGTAAGTCATGGACCGGTTTTCCCGGTAATCCGTATTTGTT (site GGTACGTCTAA)  0.00407
57. GGTGTTCCATGGACCGGTTTTCCCGGTAATCCGTATTTGTT (site GGTGTTCCTAA)  0.00351
58. GGTCCATCATGGACCGGTTTTCCCGGTAATCCGTATTTGTA (site GGTCCAGCTTA)  0.00308
59. GGTTCGTCATGGACCGGTTTTCCCGGTAATCCGTATTTGTT (site GGTGCGTCTAA)  0.00284
60. GGTAATCCATGGACCGGTTTTCCCGGTAATCCGTATTTGAA (site GGAAATCCTTT)  0.00275
61. GGTCTAACATGGACCGGTTTTCCCGGTAATCCGTATTTGTA (site GGTCAAACTTA)  0.0026
62. GGTATGCCATGGACCGGTTTTCCCGGTAATCCGTATTTGAC (site GGTATGCCTGT)  0
63. GGTATTTCATGGACCGGTTTTCCCGGTAATCCGTATTTGAA (site GGTATTTCTTT)  0
64. GGTCCCACATGGACCGGTTTTCCCGGTAATCCGTATTTGTA (site GGTCCAACTTA)  0
65. GGTCTAACATGGACCGGTTTTCCCGGTAATCCGTATTTGTA (site GGTCCAACTTA)  0
66. GGTCTACCATGGACCGGTTTTCCCGGTAATCCGTATTTGCA (site GGTCTACCTTG)  0
67. GGTGTTCCATGGACCGGTTTTCCCGGTAATCCGTATTTGGC (site GGTGTTCCTGC)  0
68. GGTTCCGCATGGACCGGTTTTCCCGGTAATCCGTATTTGCG (site GGTTCCGCTCG)  0
